Laboratory results reported in patent US20190030036A1, “PHOSPHODIESTERASE INHIBITOR TREATMENT” (Cyrano Therapeutics, Inc., priority 2013, published 2019).

Tests used:
[1] = test system: patients with hyposmia and hypogeusia; assay: Olfactometry (DT, RT, ME, HR for 4 odors) (Example 8); type: in vivo, human; conditions: intranasal theophylline vs before treatment or after oral theophylline
Text: Measurements included determination of detection thresholds (DTs), recognition thresholds (RTs), magnitude estimation (ME), and hedonic response (HR) for 4 odors (e.g., pyridine [dead fish], nitrobenzene [bitter almond], thiophene [petroleum], and amyl acetate [banana oil]) (olfactometry) and for 4 tastants (e.g., sodium chloride [salt], sucrose [sweet], […] [sour], and urea [bitter]) (gustometry).

[2] = test system: patients with hyposmia and hypogeusia; assay: Adverse effects of intranasal theophylline (Example 8); type: in vivo, human; conditions: intranasal theophylline 20 μg/d in each naris, 4 weeks
Description: Under each condition, we performed subjective evaluations of taste and smell functions, quantitative measurements of taste (gustometry) and smell (olfactometry), and measurements of serum theophylline level and body weight.
The intranasal administration device was a calibrated 1 mL syringe fitted with a nozzle that fit comfortably into the anterior naris (Wolfe Tory Medical, Inc) and loaded under sterile conditions with 20 μg of theophylline methylpropyl paraben in a 0.4-mL saline solution (Foundation Care). Patients were instructed to direct the spray superiorly into the nasal cavity but not posteriorly into the nasopharynx. This technique was practiced before study initiation with sterile saline.

patients with hyposmia = assay: Side effects of intranasal theophylline (Example 7); type: in vivo, human; conditions: intranasal theophylline 20 μg per naris once a day
Text: Ten hyposmia patients were enrolled in the study; eight patients have completed all four phases of the study with the remaining two patients still in process.

asthmatic patients = assay: sGaw after inhaled dry powder in asthmatic patients (Examples 5, 6)
Description: (§1) To test this theory, asthmatic patients are enrolled in a dose escalating single blind study. On arrival to the clinic, subjects are allowed to rest for 20 minutes before baseline measurements of FEV1 (six recordings) and sGaw (five recordings) are made. Subjects receive a dry powder dispenser loaded with a dose of 2 mg theophylline or a dry powder carrier. […] After each inhalation, measurements of sGaw are made at 1, 3, 5, 10, 15, 20, 25, and 30 minutes.
On completion of the last recording, subjects inhale a 200 μg dose of salbutamol from a metered inhaler and a further measurement of sGaw is made after 15 minutes. Subjects are also monitored for coughing and are questioned about the taste of the drug.
as §1, with “Asthmatic patients” for “To test this theory, asthmatic patients”, “of 1” for “of 2”, “mg IBMX formulated as a dry powder” for “mg theophylline”
On completion of the last recording, subjects inhale a 200 μg dose of salbutamol from a metered inhaler and a further measurement of sGaw made after 15 minutes. Subjects are also be monitored for coughing and are questioned about the taste of the drug.

[3] = Plasma theophylline level, intranasal theophylline pilot study (Example 7); type: in vivo, human; conditions: intranasal theophylline 20 μg per naris once a day; eight patients
Description: Blood was obtained by venipuncture to collect plasma and red blood cells used to measure trace metals (Cu, Zn, Mg), various enzymes, theophylline and other chemical moieties.

[4] = inhaled dry powder 2 mg theophylline

Cn1c(=O)c2[nH]cnc2n(C)c1=O [theophylline]
DTs and RTs for each odor [1]: lower (more sensitive) | Magnitude estimations for each odor [1]: higher (more intense) | adverse effects [2]: No adverse effects | side effects of intranasal use (patients with hyposmia): No side effects | sGaw above the baseline measurement (asthmatic patients; after 30 minutes, inhaled dry powder 2 mg theophylline): 20% | taste and coughing (asthmatic patients; dry powder formulation of theophylline vs nebulized liquid): without the unpleasant taste or the induction of coughing | increase in sGaw relative to 200 μg inhaled salbutamol (asthmatic patients; [4]): comparable | time until sGaw baseline is reached (asthmatic patients; [4]): 1 h | plasma theophylline levels [3]: zero
